Measurements from the supplement of paper PMC10307832.

The cell lines below were run with Cc1ccccc1C(C(=O)NC1CCCCC1)N(C(=O)Cn1ccnc1C)c1cccc(F)c1 [IDH-C35] + N=C(N)NC(=N)NCCc1ccccc1 [Phenformin] (partner 250 µM) (assay: relative viability (nuclei count vs DMSO), 5 days (fraction); higher = more cells survive). Settings: first compound 0.08 µM.
How it was run: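 Each reported value is a median over duplicate plates. It expresses relative viability: treated-well nuclei count divided by vehicle-well nuclei count. Lung cancer cell lines in 1536-well plates were dosed by pin tool a day after seeding, alone with one drug or with a fixed anchor-drug dose plus five library-drug doses (not always all listed) in √10 steps, and nuclei were counted after 5 days.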

Row | Cell Line | relative viability
1 | NCI-H522 | 0.643
2 | NCI-H1623 | 0.604
3 | NCI-H727 | 0.471
4 | NCI-H1650 | 0.486
5 | NCI-H1993 | 0.56
6 | SW 1573 | 0.456
7 | NCI-H838 | 0.729
8 | LCLC-103H | 0.308
9 | NCI-H520 | 0.588
10 | NCI-H2126 | 0.529
11 | EMC-BAC-2 | 0.5
12 | NCI-H2085 | 0.748
13 | HCC-366 | 0.658
14 | NCI-H1666 | 0.573
15 | NCI-H596 | 0.781
16 | LK-2 | 0.564
17 | NCI-H2087 | 0.482

Row | Cell Line | relative viability
18 | NCI-H2342 | 0.572
19 | SK-MES-1 | 0.696
20 | H3255 | 0.381
21 | COR-L23 | 0.478
22 | COR-L 105 | 0.479
23 | LOU-NH91 | 0.78
24 | ChaGo-K-1 | 0.482
25 | NCI-H2170 | 0.393
26 | NCI-H2405 | 0.419
27 | HOP-62 | 0.718
28 | HCC-44 | 0.227
29 | A549 | 0.188
30 | SW 900 | 0.669
31 | LU99A | 1.04
32 | BEN | 0.292
33 | NCI-H1563 | 0.703

Same assay, conditions: first compound 0.253 µM

Row | Cell Line | relative viability
34 | NCI-H522 | 0.65
35 | NCI-H1623 | 0.638
36 | NCI-H727 | 0.525
37 | NCI-H1650 | 0.423
38 | NCI-H1993 | 0.508
39 | SW 1573 | 0.372
40 | NCI-H838 | 0.599
41 | LCLC-103H | 0.338
42 | NCI-H520 | 0.665
43 | NCI-H2126 | 0.548
44 | EMC-BAC-2 | 0.584
45 | NCI-H2085 | 0.737
46 | HCC-366 | 0.629
47 | NCI-H1666 | 0.578
48 | NCI-H596 | 0.819
49 | LK-2 | 0.474
50 | NCI-H2087 | 0.433

Row | Cell Line | relative viability
51 | NCI-H2342 | 0.566
52 | SK-MES-1 | 0.649
53 | H3255 | 0.38
54 | COR-L23 | 0.42
55 | COR-L 105 | 0.479
56 | LOU-NH91 | 0.784
57 | ChaGo-K-1 | 0.473
58 | NCI-H2170 | 0.415
59 | NCI-H2405 | 0.394
60 | HOP-62 | 0.649
61 | HCC-44 | 0.293
62 | A549 | 0.189
63 | SW 900 | 0.591
64 | LU99A | 0.941
65 | BEN | 0.246
66 | NCI-H1563 | 0.625

Same assay, conditions: first compound 0.8 µM

Row | Cell Line | relative viability
67 | NCI-H522 | 0.764
68 | NCI-H1623 | 0.573
69 | NCI-H727 | 0.509
70 | NCI-H1650 | 0.436
71 | NCI-H1993 | 0.476
72 | SW 1573 | 0.387
73 | NCI-H838 | 0.502
74 | LCLC-103H | 0.344
75 | NCI-H520 | 0.652
76 | NCI-H2126 | 0.525
77 | EMC-BAC-2 | 0.583
78 | NCI-H2085 | 0.714
79 | HCC-366 | 0.621
80 | NCI-H1666 | 0.594
81 | NCI-H596 | 0.705
82 | LK-2 | 0.476
83 | NCI-H2087 | 0.398

Row | Cell Line | relative viability
84 | NCI-H2342 | 0.579
85 | SK-MES-1 | 0.6
86 | H3255 | 0.365
87 | COR-L23 | 0.423
88 | COR-L 105 | 0.555
89 | LOU-NH91 | 0.685
90 | ChaGo-K-1 | 0.511
91 | NCI-H2170 | 0.403
92 | NCI-H2405 | 0.41
93 | HOP-62 | 0.634
94 | HCC-44 | 0.254
95 | A549 | 0.151
96 | SW 900 | 0.56
97 | LU99A | 0.919
98 | BEN | 0.257
99 | NCI-H1563 | 0.696

Same assay, conditions: first compound 2.53 µM

Row | Cell Line | relative viability
100 | NCI-H522 | 0.629
101 | NCI-H1623 | 0.613
102 | NCI-H727 | 0.493
103 | NCI-H1650 | 0.462
104 | NCI-H1993 | 0.555
105 | SW 1573 | 0.359
106 | NCI-H838 | 0.659
107 | LCLC-103H | 0.364
108 | NCI-H520 | 0.525
109 | NCI-H2126 | 0.525
110 | EMC-BAC-2 | 0.508
111 | NCI-H2085 | 0.767
112 | NCI-H1666 | 0.538
113 | LK-2 | 0.27
114 | NCI-H2342 | 0.651
115 | SK-MES-1 | 0.673
116 | H3255 | 0.363
117 | COR-L23 | 0.421
118 | COR-L 105 | 0.484
119 | LOU-NH91 | 0.752
120 | ChaGo-K-1 | 0.465
121 | NCI-H2170 | 0.425
122 | NCI-H2405 | 0.384
123 | HOP-62 | 0.618
124 | HCC-44 | 0.166
125 | SW 900 | 0.615
126 | LU99A | 0.776
127 | BEN | 0.279
128 | NCI-H1563 | 0.623

Same assay, conditions: first compound 8 µM

Row | Cell Line | relative viability
129 | NCI-H522 | 0.659
130 | NCI-H1623 | 0.557
131 | NCI-H727 | 0.579
132 | NCI-H1650 | 0.379
133 | NCI-H1993 | 0.524
134 | SW 1573 | 0.352
135 | NCI-H838 | 0.543
136 | LCLC-103H | 0.34
137 | NCI-H520 | 0.699
138 | NCI-H2126 | 0.483
139 | EMC-BAC-2 | 0.493
140 | NCI-H2085 | 0.595
141 | HCC-366 | 0.578
142 | NCI-H1666 | 0.54
143 | NCI-H596 | 0.786
144 | LK-2 | 0.623

Row | Cell Line | relative viability
145 | NCI-H2087 | 0.432
146 | NCI-H2342 | 0.527
147 | SK-MES-1 | 0.648
148 | H3255 | 0.344
149 | COR-L23 | 0.382
150 | COR-L 105 | 0.457
151 | LOU-NH91 | 0.497
152 | ChaGo-K-1 | 0.531
153 | NCI-H2170 | 0.412
154 | NCI-H2405 | 0.363
155 | HOP-62 | 0.677
156 | HCC-44 | 0.182
157 | A549 | 0.19
158 | SW 900 | 0.438
159 | LU99A | 0.858
